These results are taken from patent publication US20020173468A1, “MODIFIED CYTOSTATIC AGENTS” (priority 1996, published 2002).

What is called IC50 is the concentration that gives 50% inhibition. Read a high IC50 as a need for much substance.

Holding throughout (format): cell-based
Test [1] concerns HT 29 human colonic tumour cell line. As to the kind of experiment: Growth inhibition test (MTT) for cytotoxic properties, HT 29. The settings on record: HT 29 cells. As for the experimental part:
(§1) 1. Growth Inhibition Test for the Determination of Cytotoxic Properties
(§2) They were then trypsinized and taken up in RPMI plus 10% FCS to give a cell count of 50,000 cells/ml. 100 μl of cell suspension/well were added to a 96 microwell plate and incubated for 1 day at 37° C. in a CO2 incubator. A further 100 μl of RPMI medium and 1 μl of DMSO were then added with the test substances. The growth was checked after day 3 and day 6. To do this, 40 μl of MTT solution (3-(4,5-dimethylthiazol-2-yl)-2,5-diphenyl-tetrazolin bromide) were added to each microwell at a starting concentration of 5 mg/ml of H2O. Incubation was carried out at 37° C. for 5 hours in the CO2 incubator. The medium was then aspirated and 100 μl of i-propanol/well were added. After shaking for 30 min with 100 μl of H2O, the extinction was measured at 540 nm using a Titertek Multiskan MCC/340 (flow).
(§3) The cytotoxic action is indicated in Table 1 as an IC50 value in each case for the SW 480 and HT 29 and B16F10 cell lines: […]

For test [2], the system named is SW 480 human colonic tumour cell line. The test can be described thus: Growth inhibition test (MTT) for cytotoxic properties, SW 480. Conditions: SW 480 cells. As to the method:
as §1, §2, §3

For test [3], the system named is B16F10 mouse melanoma cell line. The test can be described thus: Growth inhibition test (MTT) for cytotoxic properties, B16F10. Conditions: B16F10 cells. As for the experimental part: as §1, §2, §3

Structures can show the parent of a compound that is named as a salt.

Take `CCC1(OC(=O)C(NC(=O)C(CCCCNC(=S)Nc2ccc(O)cc2)NC(=S)Nc2ccc(O)cc2)C(C)C)C(=O)OCc2c1cc1n(c2=O)Cc2cc3ccccc3nc2-1` (stereo not drawn) [4.21), 20-O-{[N^α-N^ε-bis-(4-Hydroxy-phenylamino-thiocarbonyl)]-lysyl-valyl}-camptothecin, hydrochloride]: the IC50 in test [1] amounted to 300 nM; in test [2], 700 nM; in test [3], 3000 nM.
For `CCC1(OC(=O)C(NC(=O)C(Cc2c[nH]cn2)NC(=S)Nc2ccc(O)cc2)C(C)C)C(=O)OCc2c1cc1n(c2=O)Cc2cc3ccccc3nc2-1` (stereo not drawn) [4.19), 20-O-[N^α-(4-Hydroxy-phenylamino-thiocarbonyl)-histidyl-valyl]-camptothecin, hydrochloride], in that order: 40 nM, 80 nM and 400 nM.
For `CCc1c2c(nc3ccc(O)cc13)-c1cc3c(c(=O)n1C2)COC(=O)C3(CC)OC(=O)[C@@H](NC(=O)[C@H](CCCCN)NC(=S)Nc1ccc(O)cc1)C(C)C` (stereo partly drawn) [8), 7-Ethyl-10-hydroxy-20-O-[N^α-(4-hydroxy-phenylamino-thiocarbonyl)-lysyl-valyl]-camptothecin, hydrochloride] the same measures were 200 nM, 150 nM and 3000 nM.
Regarding `NCCCC[C@H](NC(=S)Nc1ccc(O)cc1)C(=O)Nc1ccc2c(c1)CN1C(=O)c3ccccc3C1=N2` [1.2), N-[N^α-(4-Hydroxy-phenylamino-thiocarbonyl)-lysyl]-batracylin], the IC50 was determined as 40000 nM in test [1] and 25000 nM in test [2].
Consider `NCCCCC(NC(=S)Nc1ccc(N=C=S)cc1)C(=O)NC1C=CCC2CN(c3c(F)cc4c(=O)c(C(=O)O)cn(C5CC5)c4c3Cl)CC21` (racemic) [2.8), N-[N^α-(4-Isothiocyanato-phenylamino-thiocarbonyl)-lysyl]-quinolone-a], for which the concentration for half-maximal inhibition (IC50) in test [1] worked out at 100 nM; in test [2] it was 200 nM; in test [3] it was 100 nM.
Take `O=C(O)c1cn(C2CC2)c2c(Cl)c(N3CC4CC=CC(NC(=O)C(CCCCNC(=S)Nc5ccc(O)cc5)NC(=S)Nc5ccc(O)cc5)C4C3)c(F)cc2c1=O` (racemic) [2.5), N-[N^α,N^ε-bis-(4-Hydroxy-phenylamino-thiocarbonyl)-D-lysyl]-quinolone-a]: the IC50 in test [1] is above 200000 nM; in test [2], 200000 nM; in test [3], 200000 nM.
As to `CCc1c2c(nc3ccccc13)-c1cc3c(c(=O)n1C2)COC(=O)C3(CC)OC(=O)C(NC(=O)C(CCCCN)NC(=S)Nc1ccc(O)cc1)C(C)C` (stereo not drawn) [5.2), 7-Ethyl-20-O-[N^α-(4-hydroxy-phenylamino-thiocarbonyl)-lysyl-valyl]-camptothecin, hydrochloride], the IC50 amounted to 300 nM in test [1], 500 nM in test [2] and 900 nM in test [3].
For `CC[C@@]1(OC(=O)[C@@H](NC(=O)[C@H](CCCCN)NC(=S)Nc2cccc(O)c2)C(C)C)C(=O)OCc2c1cc1n(c2=O)Cc2cc3ccccc3nc2-1` [4.12), 20-O-[N^α-(3-Hydroxy-phenylamino-thiocarbonyl)-lysyl-valyl]-camptothecin, hydrochloride] the same measures were 30 nM, 40 nM and 200 nM.
For `CC(NC(=O)C(CCC(=O)O)NC(=S)Nc1ccc(O)cc1)C(=O)Nc1ccc2nc3n(c(=O)c2c1)Cc1ccccc1-3` [1.6), N-[N-(4-Hydroxy-phenylamino-thiocarbonyl)-glutamyl-D-alanyl]-batracylin], the results for the half-maximal inhibitory concentration (IC50) in test [1] and in test [2] were 800000 nM and 550000 nM, respectively.
For `NC(CCCCNC(=S)Nc1ccc(O)cc1)C(=O)Nc1ccc2c(c1)CN1C(=O)c3ccccc3C1=N2` (centres unmarked) [1.3), N-[N^ε-(4-Hydroxy-phenylamino-thiocarbonyl)-lysyl]-batracylin] the same measures were 70000 nM and 45000 nM.
For `CC(NC(=O)C(CO)NC(=S)Nc1ccc(O)cc1)C(=O)Nc1ccc2c(c1)CN1C(=O)c3ccccc3C1=N2` [1.5), N-[N-(4-Hydroxy-phenylamino-thiocarbonyl)-seryl-D-alanyl]-batracylin] the same measures were 400000 nM and 250000 nM.
